Results reported in the supplement of paper PMC10307832.

How the values were obtained:
Assay in all cases: relative viability (nuclei count vs DMSO), 5 days (fraction); higher = more cells survive
Idelalisib + Tozasertib = compound: CC[C@H](Nc1ncnc2[nH]cnc12)c1nc2cccc(F)c2c(=O)n1-c1ccccc1 [Idelalisib] + Cc1cc(Nc2cc(N3CCN(C)CC3)nc(Sc3ccc(NC(=O)C4CC4)cc3)n2)n[nH]1 [Tozasertib] (partner 0.1 µM)
Summary of the method: (§1)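 Lung cancer cell lines in 1536-well plates got either a single drug or a fixed anchor-drug dose together with five library-drug doses (not always all listed) in √10 steps, by pin tool, on the day after seeding. Nuclei were counted after 5 days, and relative viability is the treated-to-vehicle ratio of nuclei counts. Values are medians of duplicate plates.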

Pemetrexed + Lapatinib = compound: Nc1nc2[nH]cc(CCc3ccc(C(=O)N[C@@H](CCC(=O)O)C(=O)O)cc3)c2c(=O)[nH]1 [Pemetrexed] + CS(=O)(=O)CCNCc1ccc(-c2ccc3ncnc(Nc4ccc(OCc5cccc(F)c5)c(Cl)c4)c3c2)o1 [Lapatinib] (partner 2 µM)
Summary of the method: as §1

Idelalisib + Dasatinib = compound: CC[C@H](Nc1ncnc2[nH]cnc12)c1nc2cccc(F)c2c(=O)n1-c1ccccc1 [Idelalisib] + Cc1nc(Nc2ncc(C(=O)Nc3c(C)cccc3Cl)s2)cc(N2CCN(CCO)CC2)n1 [Dasatinib] (partner 0.075 µM)
Summary of the method: as §1

Pemetrexed + Foretinib = compound: Nc1nc2[nH]cc(CCc3ccc(C(=O)N[C@@H](CCC(=O)O)C(=O)O)cc3)c2c(=O)[nH]1 [Pemetrexed] + COc1cc2c(Oc3ccc(NC(=O)C4(C(=O)Nc5ccc(F)cc5)CC4)cc3F)ccnc2cc1OCCCN1CCOCC1 [Foretinib] (partner 0.25 µM)
Summary of the method: as §1

HCC-15
relative viability (Idelalisib + Tozasertib; first compound 0.04 µM): 0.556 | relative viability (Idelalisib + Tozasertib; first compound 0.1265 µM): 0.419 | relative viability (Idelalisib + Tozasertib; first compound 0.4 µM): 0.356 | relative viability (Idelalisib + Tozasertib; first compound 1.265 µM): 0.384 | relative viability (Idelalisib + Tozasertib; first compound 4 µM): 0.31 | relative viability (Pemetrexed + Lapatinib; first compound 0.002 µM): 0.751 | relative viability (Pemetrexed + Lapatinib; first compound 0.006325 µM): 0.763 | relative viability (Pemetrexed + Lapatinib; first compound 0.02 µM): 1 | relative viability (Pemetrexed + Lapatinib; first compound 0.06325 µM): 0.655 | relative viability (Pemetrexed + Lapatinib; first compound 0.2 µM): 0.444 | relative viability (Idelalisib + Dasatinib; first compound 0.04 µM): 0.614 | relative viability (Idelalisib + Dasatinib; first compound 0.1265 µM): 0.591 | relative viability (Idelalisib + Dasatinib; first compound 0.4 µM): 0.52 | relative viability (Idelalisib + Dasatinib; first compound 1.265 µM): 0.674 | relative viability (Idelalisib + Dasatinib; first compound 4 µM): 0.491 | relative viability (Pemetrexed + Foretinib; first compound 0.002 µM): 0.987 | relative viability (Pemetrexed + Foretinib; first compound 0.006325 µM): 0.987 | relative viability (Pemetrexed + Foretinib; first compound 0.02 µM): 1.06 | relative viability (Pemetrexed + Foretinib; first compound 0.06325 µM): 0.645 | relative viability (Pemetrexed + Foretinib; first compound 0.2 µM): 0.219

NCI-H2405
relative viability (Idelalisib + Tozasertib; first compound 0.04 µM): 0.841 | relative viability (Idelalisib + Tozasertib; first compound 0.1265 µM): 0.864 | relative viability (Idelalisib + Tozasertib; first compound 0.4 µM): 0.671 | relative viability (Idelalisib + Tozasertib; first compound 1.265 µM): 0.762 | relative viability (Idelalisib + Tozasertib; first compound 4 µM): 0.672 | relative viability (Pemetrexed + Lapatinib; first compound 0.002 µM): 1.13 | relative viability (Pemetrexed + Lapatinib; first compound 0.006325 µM): 1.05 | relative viability (Pemetrexed + Lapatinib; first compound 0.02 µM): 1.14 | relative viability (Pemetrexed + Lapatinib; first compound 0.06325 µM): 1.04 | relative viability (Pemetrexed + Lapatinib; first compound 0.2 µM): 1.07 | relative viability (Idelalisib + Dasatinib; first compound 0.04 µM): 0.25 | relative viability (Idelalisib + Dasatinib; first compound 0.1265 µM): 0.201 | relative viability (Idelalisib + Dasatinib; first compound 0.4 µM): 0.199 | relative viability (Idelalisib + Dasatinib; first compound 1.265 µM): 0.245 | relative viability (Idelalisib + Dasatinib; first compound 4 µM): 0.217 | relative viability (Pemetrexed + Foretinib; first compound 0.002 µM): 1.06 | relative viability (Pemetrexed + Foretinib; first compound 0.006325 µM): 1.03 | relative viability (Pemetrexed + Foretinib; first compound 0.02 µM): 1.09 | relative viability (Pemetrexed + Foretinib; first compound 0.06325 µM): 1.03 | relative viability (Pemetrexed + Foretinib; first compound 0.2 µM): 1.08

NCI-H1993
relative viability (Idelalisib + Tozasertib; first compound 0.04 µM): 0.628 | relative viability (Idelalisib + Tozasertib; first compound 0.1265 µM): 0.54 | relative viability (Idelalisib + Tozasertib; first compound 0.4 µM): 0.519 | relative viability (Idelalisib + Tozasertib; first compound 1.265 µM): 0.583 | relative viability (Idelalisib + Tozasertib; first compound 4 µM): 0.574 | relative viability (Pemetrexed + Lapatinib; first compound 0.002 µM): 0.863 | relative viability (Pemetrexed + Lapatinib; first compound 0.006325 µM): 0.887 | relative viability (Pemetrexed + Lapatinib; first compound 0.02 µM): 0.869 | relative viability (Pemetrexed + Lapatinib; first compound 0.06325 µM): 0.754 | relative viability (Pemetrexed + Lapatinib; first compound 0.2 µM): 0.665 | relative viability (Idelalisib + Dasatinib; first compound 0.04 µM): 0.785 | relative viability (Idelalisib + Dasatinib; first compound 0.1265 µM): 0.562 | relative viability (Idelalisib + Dasatinib; first compound 0.4 µM): 0.51 | relative viability (Idelalisib + Dasatinib; first compound 1.265 µM): 0.51 | relative viability (Idelalisib + Dasatinib; first compound 4 µM): 0.522 | relative viability (Pemetrexed + Foretinib; first compound 0.002 µM): 0.806 | relative viability (Pemetrexed + Foretinib; first compound 0.006325 µM): 0.838 | relative viability (Pemetrexed + Foretinib; first compound 0.02 µM): 0.74 | relative viability (Pemetrexed + Foretinib; first compound 0.06325 µM): 0.774 | relative viability (Pemetrexed + Foretinib; first compound 0.2 µM): 0.811

NCI-H1650
relative viability (Idelalisib + Tozasertib; first compound 0.04 µM): 0.312 | relative viability (Idelalisib + Tozasertib; first compound 0.1265 µM): 0.405 | relative viability (Idelalisib + Tozasertib; first compound 0.4 µM): 0.36 | relative viability (Idelalisib + Tozasertib; first compound 1.265 µM): 0.33 | relative viability (Idelalisib + Tozasertib; first compound 4 µM): 0.304 | relative viability (Pemetrexed + Lapatinib; first compound 0.002 µM): 0.804 | relative viability (Pemetrexed + Lapatinib; first compound 0.006325 µM): 0.699 | relative viability (Pemetrexed + Lapatinib; first compound 0.02 µM): 0.8 | relative viability (Pemetrexed + Lapatinib; first compound 0.06325 µM): 0.505 | relative viability (Pemetrexed + Lapatinib; first compound 0.2 µM): 0.349 | relative viability (Idelalisib + Dasatinib; first compound 0.04 µM): 0.322 | relative viability (Idelalisib + Dasatinib; first compound 0.1265 µM): 0.321 | relative viability (Idelalisib + Dasatinib; first compound 0.4 µM): 0.24 | relative viability (Idelalisib + Dasatinib; first compound 1.265 µM): 0.315 | relative viability (Idelalisib + Dasatinib; first compound 4 µM): 0.23 | relative viability (Pemetrexed + Foretinib; first compound 0.002 µM): 0.985 | relative viability (Pemetrexed + Foretinib; first compound 0.006325 µM): 0.988 | relative viability (Pemetrexed + Foretinib; first compound 0.02 µM): 1.17 | relative viability (Pemetrexed + Foretinib; first compound 0.06325 µM): 0.888 | relative viability (Pemetrexed + Foretinib; first compound 0.2 µM): 0.402

NCI-H460
relative viability (Idelalisib + Tozasertib; first compound 0.04 µM): 0.626 | relative viability (Idelalisib + Tozasertib; first compound 0.1265 µM): 0.397 | relative viability (Idelalisib + Tozasertib; first compound 0.4 µM): 0.436 | relative viability (Idelalisib + Tozasertib; first compound 1.265 µM): 0.447 | relative viability (Idelalisib + Tozasertib; first compound 4 µM): 0.255 | relative viability (Pemetrexed + Lapatinib; first compound 0.002 µM): 0.892 | relative viability (Pemetrexed + Lapatinib; first compound 0.006325 µM): 0.856 | relative viability (Pemetrexed + Lapatinib; first compound 0.02 µM): 0.963 | relative viability (Pemetrexed + Lapatinib; first compound 0.06325 µM): 0.276 | relative viability (Pemetrexed + Lapatinib; first compound 0.2 µM): 0.0581 | relative viability (Idelalisib + Dasatinib; first compound 0.04 µM): 0.571 | relative viability (Idelalisib + Dasatinib; first compound 0.1265 µM): 0.535 | relative viability (Idelalisib + Dasatinib; first compound 0.4 µM): 0.405 | relative viability (Idelalisib + Dasatinib; first compound 1.265 µM): 0.5 | relative viability (Idelalisib + Dasatinib; first compound 4 µM): 0.428 | relative viability (Pemetrexed + Foretinib; first compound 0.002 µM): 0.989 | relative viability (Pemetrexed + Foretinib; first compound 0.006325 µM): 0.942 | relative viability (Pemetrexed + Foretinib; first compound 0.02 µM): 1.1 | relative viability (Pemetrexed + Foretinib; first compound 0.06325 µM): 0.64 | relative viability (Pemetrexed + Foretinib; first compound 0.2 µM): 0.0776

NCI-H1651
relative viability (Idelalisib + Tozasertib; first compound 0.04 µM): 0.673 | relative viability (Idelalisib + Tozasertib; first compound 0.1265 µM): 0.623 | relative viability (Idelalisib + Tozasertib; first compound 0.4 µM): 0.615 | relative viability (Idelalisib + Tozasertib; first compound 1.265 µM): 0.593 | relative viability (Idelalisib + Tozasertib; first compound 4 µM): 0.605 | relative viability (Pemetrexed + Lapatinib; first compound 0.002 µM): 0.9 | relative viability (Pemetrexed + Lapatinib; first compound 0.006325 µM): 0.767 | relative viability (Pemetrexed + Lapatinib; first compound 0.02 µM): 0.819 | relative viability (Pemetrexed + Lapatinib; first compound 0.06325 µM): 0.85 | relative viability (Pemetrexed + Lapatinib; first compound 0.2 µM): 0.725 | relative viability (Idelalisib + Dasatinib; first compound 0.04 µM): 0.305 | relative viability (Idelalisib + Dasatinib; first compound 0.1265 µM): 0.314 | relative viability (Idelalisib + Dasatinib; first compound 0.4 µM): 0.318 | relative viability (Idelalisib + Dasatinib; first compound 1.265 µM): 0.518 | relative viability (Idelalisib + Dasatinib; first compound 4 µM): 0.332 | relative viability (Pemetrexed + Foretinib; first compound 0.002 µM): 0.673 | relative viability (Pemetrexed + Foretinib; first compound 0.006325 µM): 0.772 | relative viability (Pemetrexed + Foretinib; first compound 0.02 µM): 0.826 | relative viability (Pemetrexed + Foretinib; first compound 0.06325 µM): 0.754 | relative viability (Pemetrexed + Foretinib; first compound 0.2 µM): 0.737
